We go through two compounds from article PMC12668308, “A Novel Antimalarial Agent that Inhibits Protein Synthesis in Plasmodium falciparum” (Angewandte Chemie (International Ed. in English), 2025).

Read-outs that look alike come from different tables or passages of the source. A value given as a limit tells only on which side of the number the result lay.

Assay [1] deals with cytosolic ribosomal subunits. Kind of assay: iSPP assay, P. falciparum lysate. The class given is binding, Plasmodium falciparum. The conditions noted are these: lysate incubated with 100 µM; 104 stabilized proteins in total for 31. The source says:
To further elucidate the MoA of 31, an integral solvent‐induced protein precipitation (iSPP) assay was employed as recently described.^[ [26] ^] iSPP utilizes a solvent mixture (acetone/ethanol/acetic acid) to induce protein denaturation, allowing the detection of drug‐protein interactions by quantitative mass spectrometry based on changes in protein stability due to compound binding using cellular lysates from in vitro blood‐stage P. falciparum parasites.
P. falciparum NF54 lysates were extracted as described in ^[26^] . The parasite asynchronous culture was extracted once 3-5% parasitemia was reached. Saponin lysis was done as described in 2.2.10. […] The soluble protein fraction (supernatant) was collected and the protein content was quantified using the BCA assay (Pierce™ BCA Protein Assay Kit, Thermo Fisher Scientific). […]
The raw LFQ-DIA intensity values of biological replicates across all conditions were normalized to the median abundance using Excel. […] Dose-dependent curves were generated using normalized protein intensity values, expressed as a ratio to the vehicle control. […]

Assay [2] has as its system P. falciparum NF54 strain. Kind of assay: [3H]-hypoxanthine incorporation assay, asexual blood stage. It is filed as cell-based, Plasmodium falciparum. In outline:
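Parasites in human RBC were exposed to a 6-step twofold compound dilution in hypoxanthine-free medium (final parasitemia 0.3%, haematocrit 1.25%) at 37 °C under 3% O2/4% CO2. After 48 h, [3H]-hypoxanthine (0.25 µCi/well) was added for 24 h and uptake measured by scintillation counting. IC50 came from four-parameter curve fitting.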

Where [3] appears, read: Plasmodium falciparum, NF54, asexual blood stage, mean ± s.d., read-out: PfNF54 IC50 ± s.d.

`CN1CCN(Cc2ccc(O)c(NC(=O)c3cccc(Oc4cc(C(F)(F)F)ccn4)c3)c2)CC1` [Compound 31, N-(2-hydroxy-5-((4-methylpiperazin-1-yl)methyl)phenyl)-3-((4-(trifluoromethyl)pyridin-2-yl)oxy)benzamide]: in assay [1], the “significantly stabilized proteins belonging to cytosolic ribosomal subunits” value worked out at 12. The “IC50 ratio relative to NF54 strain” value in assay [2] (NF54) turned out to be 1.00. The half-inhibitory concentration (IC50) in assay [2] (Plasmodium falciparum, NF54, 72 h, Table S2, NF54 sensitive strain, 72-h assay, mean±s.d., read-out: IC50) is 1.8 ± 0.3 nM; in assay [2] (setting [3]) it was under 5 nM; in assay [2] (asexual blood stage, mean ± s.d., read-out: PfNF54 IC50 ± s.d.) it was 3.9 nM.

Regarding `O=C(Nc1cc(CN2CCOCC2)ccc1F)c1cccc(Oc2cc(C(F)(F)F)ccn2)c1` [Compound 34, N-(2-Fluoro-5-(morpholinomethyl)phenyl)-3-((4-(trifluoromethyl)pyridin-2-yl)oxy)benzamide], the “significantly stabilized proteins belonging to cytosolic ribosomal subunits” value in assay [1] is listed as “failed to stabilize any cytosolic ribosomal proteins”. For the same compound, in assay [2] (PfNF54 IC50), the “fold lower activity (control compound vs 31)” value stood at 1000 fold. Moreover, the IC50 in assay [2] (setting [3]) worked out at 3730 nM.

One may read the IC50 as the concentration at which inhibition is half-maximal.
